# Experimental data published in publication PMC7486443, “Generation of Phenothiazine with Potent Anti-TLK1 Activity for Prostate Cancer Therapy” (iScience, 2020).
# What was measured:
# Experiment in all cases: biochemical
# Set-up in all cases: DiscoverX KINOMEscan scanMAX competition binding panel, single concentration, percent of control; remaining binding: dose or concentration left out as unconfirmed
# Settings in all cases: KINOMEscan binding, percent of control; read-out: Table S4_SCANMAX REPORT - related to Fig. 1 / Percent Control
# S6K1 = target: T1, S6K1 (Homo sapiens, UniProt P23443)
# T1 construct: gene RPS6KB1
# CSNK1G2 = CSNK1G2 (Homo sapiens, UniProt P78368)
# CSNK1G2, sequence (P78368 whole entry): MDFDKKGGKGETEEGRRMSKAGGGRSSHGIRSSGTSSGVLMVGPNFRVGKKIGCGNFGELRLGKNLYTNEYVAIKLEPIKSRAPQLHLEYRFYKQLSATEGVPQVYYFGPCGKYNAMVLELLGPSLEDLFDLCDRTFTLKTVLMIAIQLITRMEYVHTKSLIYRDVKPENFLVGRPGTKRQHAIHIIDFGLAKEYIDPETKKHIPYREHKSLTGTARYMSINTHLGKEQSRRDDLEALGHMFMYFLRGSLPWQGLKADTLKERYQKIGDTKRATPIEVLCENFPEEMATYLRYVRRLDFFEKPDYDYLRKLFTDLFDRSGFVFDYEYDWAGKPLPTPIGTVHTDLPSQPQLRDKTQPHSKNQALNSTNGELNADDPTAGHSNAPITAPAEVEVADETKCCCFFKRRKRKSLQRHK
# SRPK3 = SRPK3 (Homo sapiens, UniProt Q9UPE1)
# CDK9 = CDK9 (Homo sapiens, UniProt P50750)
# CDK9, sequence (P50750 whole entry): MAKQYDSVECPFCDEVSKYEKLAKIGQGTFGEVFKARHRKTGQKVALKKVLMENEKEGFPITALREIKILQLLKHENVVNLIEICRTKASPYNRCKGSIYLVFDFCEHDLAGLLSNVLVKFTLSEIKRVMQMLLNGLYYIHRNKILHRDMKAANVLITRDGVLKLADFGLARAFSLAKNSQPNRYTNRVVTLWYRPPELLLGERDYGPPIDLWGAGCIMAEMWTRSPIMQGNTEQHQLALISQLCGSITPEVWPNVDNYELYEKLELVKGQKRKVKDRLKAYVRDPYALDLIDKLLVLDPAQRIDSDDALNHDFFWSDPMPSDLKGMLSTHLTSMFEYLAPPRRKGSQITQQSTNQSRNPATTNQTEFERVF
# EGFR = EGFR (Homo sapiens, UniProt P00533)
# DDR2 = DDR2 (Homo sapiens, UniProt Q16832)
# DDR2, sequence (Q16832 whole entry): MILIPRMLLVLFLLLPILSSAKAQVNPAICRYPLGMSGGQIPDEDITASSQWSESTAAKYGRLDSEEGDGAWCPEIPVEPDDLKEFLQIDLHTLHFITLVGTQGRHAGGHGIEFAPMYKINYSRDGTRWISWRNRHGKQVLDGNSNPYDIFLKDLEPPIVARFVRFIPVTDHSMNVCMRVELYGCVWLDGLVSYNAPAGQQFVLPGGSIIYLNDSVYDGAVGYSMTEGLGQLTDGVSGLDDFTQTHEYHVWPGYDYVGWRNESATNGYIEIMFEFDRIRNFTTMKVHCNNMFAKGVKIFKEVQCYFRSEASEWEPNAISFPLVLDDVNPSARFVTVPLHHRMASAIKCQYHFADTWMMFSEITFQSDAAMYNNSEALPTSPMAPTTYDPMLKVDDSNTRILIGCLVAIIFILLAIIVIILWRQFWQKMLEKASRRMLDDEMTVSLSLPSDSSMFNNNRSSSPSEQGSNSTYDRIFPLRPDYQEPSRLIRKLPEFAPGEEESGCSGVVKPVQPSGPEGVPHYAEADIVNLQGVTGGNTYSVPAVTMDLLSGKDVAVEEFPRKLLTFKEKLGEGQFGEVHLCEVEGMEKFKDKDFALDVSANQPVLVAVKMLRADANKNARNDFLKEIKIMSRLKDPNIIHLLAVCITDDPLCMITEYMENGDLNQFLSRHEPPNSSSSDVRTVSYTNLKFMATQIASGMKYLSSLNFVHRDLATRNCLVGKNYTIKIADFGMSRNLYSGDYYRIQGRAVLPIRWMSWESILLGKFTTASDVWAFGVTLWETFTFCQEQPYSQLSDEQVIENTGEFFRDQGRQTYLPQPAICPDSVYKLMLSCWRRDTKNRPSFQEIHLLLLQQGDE
# GAK = GAK (Homo sapiens, UniProt O14976)
# DRAK1 = target: T2, DRAK1 (Homo sapiens, UniProt Q9UEE5)
# T2 construct: gene STK17A
# T2 sequence (Q9UEE5 whole entry): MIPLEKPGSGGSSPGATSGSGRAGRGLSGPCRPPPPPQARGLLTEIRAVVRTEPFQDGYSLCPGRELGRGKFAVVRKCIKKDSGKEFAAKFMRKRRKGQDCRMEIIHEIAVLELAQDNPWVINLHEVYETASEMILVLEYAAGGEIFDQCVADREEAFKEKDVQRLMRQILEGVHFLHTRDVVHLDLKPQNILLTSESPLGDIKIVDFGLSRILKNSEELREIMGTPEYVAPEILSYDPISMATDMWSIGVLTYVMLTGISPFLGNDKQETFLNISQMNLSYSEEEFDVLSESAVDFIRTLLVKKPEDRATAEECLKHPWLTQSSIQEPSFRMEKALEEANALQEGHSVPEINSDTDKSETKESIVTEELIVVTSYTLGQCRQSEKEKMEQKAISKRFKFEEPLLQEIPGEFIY
# PRKG1 = PRKG1 (Homo sapiens, UniProt Q13976)
# PRKG1, sequence (Q13976 whole entry): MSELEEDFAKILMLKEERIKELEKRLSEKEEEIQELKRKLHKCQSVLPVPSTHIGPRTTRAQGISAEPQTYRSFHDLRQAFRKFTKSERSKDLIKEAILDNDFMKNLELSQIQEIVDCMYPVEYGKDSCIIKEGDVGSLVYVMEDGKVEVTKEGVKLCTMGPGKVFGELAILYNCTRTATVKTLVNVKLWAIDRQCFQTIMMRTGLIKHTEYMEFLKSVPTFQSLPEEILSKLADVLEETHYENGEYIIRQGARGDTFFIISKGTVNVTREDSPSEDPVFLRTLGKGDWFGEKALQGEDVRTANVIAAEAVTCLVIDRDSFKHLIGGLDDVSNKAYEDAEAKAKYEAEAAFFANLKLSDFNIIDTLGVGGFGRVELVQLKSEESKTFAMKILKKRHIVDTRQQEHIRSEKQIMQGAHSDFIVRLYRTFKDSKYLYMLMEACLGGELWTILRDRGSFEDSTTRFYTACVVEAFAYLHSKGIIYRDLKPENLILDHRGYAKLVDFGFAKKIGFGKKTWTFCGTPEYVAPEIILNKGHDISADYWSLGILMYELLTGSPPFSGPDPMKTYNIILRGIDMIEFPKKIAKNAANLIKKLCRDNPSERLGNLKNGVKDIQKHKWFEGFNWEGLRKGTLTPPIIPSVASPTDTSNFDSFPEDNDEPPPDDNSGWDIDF
# AURKA = AURKA (Homo sapiens, UniProt O14965)
# ACVR2A = ACVR2A (Homo sapiens, UniProt P27037)
# ACVR2A, sequence (P27037 whole entry): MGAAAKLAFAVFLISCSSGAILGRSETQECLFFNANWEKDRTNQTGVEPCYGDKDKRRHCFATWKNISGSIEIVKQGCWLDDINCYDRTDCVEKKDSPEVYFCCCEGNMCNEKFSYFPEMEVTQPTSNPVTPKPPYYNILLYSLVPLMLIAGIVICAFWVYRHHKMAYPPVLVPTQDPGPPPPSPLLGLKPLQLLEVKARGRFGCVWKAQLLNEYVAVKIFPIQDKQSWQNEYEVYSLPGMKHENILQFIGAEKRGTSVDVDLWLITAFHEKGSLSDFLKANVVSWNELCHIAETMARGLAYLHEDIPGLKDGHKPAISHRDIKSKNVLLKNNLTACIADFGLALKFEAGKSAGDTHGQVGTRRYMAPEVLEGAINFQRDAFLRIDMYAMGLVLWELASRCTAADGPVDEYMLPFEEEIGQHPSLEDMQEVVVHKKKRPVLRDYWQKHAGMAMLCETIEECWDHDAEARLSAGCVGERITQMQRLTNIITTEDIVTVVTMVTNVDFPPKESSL
# LIMK1 = LIMK1 (Homo sapiens, UniProt P53667)
# TNK2 = TNK2 (Homo sapiens, UniProt Q07912)
# TNK2, sequence (Q07912 whole entry): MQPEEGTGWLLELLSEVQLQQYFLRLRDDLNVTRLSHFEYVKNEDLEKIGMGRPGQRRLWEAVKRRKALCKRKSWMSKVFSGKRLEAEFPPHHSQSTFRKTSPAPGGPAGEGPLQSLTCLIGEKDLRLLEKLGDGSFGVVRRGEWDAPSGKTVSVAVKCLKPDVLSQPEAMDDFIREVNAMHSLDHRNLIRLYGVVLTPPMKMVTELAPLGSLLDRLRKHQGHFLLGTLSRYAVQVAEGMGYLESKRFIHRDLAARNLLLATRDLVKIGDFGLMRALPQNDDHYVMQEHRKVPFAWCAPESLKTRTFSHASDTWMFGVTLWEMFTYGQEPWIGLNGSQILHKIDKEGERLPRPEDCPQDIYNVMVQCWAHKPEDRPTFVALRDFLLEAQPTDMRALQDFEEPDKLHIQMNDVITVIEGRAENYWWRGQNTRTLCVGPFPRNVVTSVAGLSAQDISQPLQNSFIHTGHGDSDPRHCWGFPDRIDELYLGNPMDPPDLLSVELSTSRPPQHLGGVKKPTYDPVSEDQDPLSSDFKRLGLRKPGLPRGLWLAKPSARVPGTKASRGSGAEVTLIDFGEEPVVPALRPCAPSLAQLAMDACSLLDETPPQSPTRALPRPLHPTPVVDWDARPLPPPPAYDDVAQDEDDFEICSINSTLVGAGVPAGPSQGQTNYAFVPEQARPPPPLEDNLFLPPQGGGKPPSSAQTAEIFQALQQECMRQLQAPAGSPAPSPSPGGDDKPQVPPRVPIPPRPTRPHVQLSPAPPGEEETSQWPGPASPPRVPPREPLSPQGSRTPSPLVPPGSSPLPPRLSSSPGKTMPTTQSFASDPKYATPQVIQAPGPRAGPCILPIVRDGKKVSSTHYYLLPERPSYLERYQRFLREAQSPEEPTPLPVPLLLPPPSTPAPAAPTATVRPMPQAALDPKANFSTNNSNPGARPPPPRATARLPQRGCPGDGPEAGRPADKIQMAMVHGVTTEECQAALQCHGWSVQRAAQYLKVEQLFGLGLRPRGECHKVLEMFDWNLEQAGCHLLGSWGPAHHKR
# PCTK1 = target: T3, PCTK1 (Homo sapiens, UniProt Q00536)
# T3 construct: gene CDK16
# AMPK-alpha1 = target: T4, AMPK-alpha1 (Homo sapiens, UniProt Q13131)
# T4 construct: gene PRKAA1
# T4 sequence (Q13131 whole entry): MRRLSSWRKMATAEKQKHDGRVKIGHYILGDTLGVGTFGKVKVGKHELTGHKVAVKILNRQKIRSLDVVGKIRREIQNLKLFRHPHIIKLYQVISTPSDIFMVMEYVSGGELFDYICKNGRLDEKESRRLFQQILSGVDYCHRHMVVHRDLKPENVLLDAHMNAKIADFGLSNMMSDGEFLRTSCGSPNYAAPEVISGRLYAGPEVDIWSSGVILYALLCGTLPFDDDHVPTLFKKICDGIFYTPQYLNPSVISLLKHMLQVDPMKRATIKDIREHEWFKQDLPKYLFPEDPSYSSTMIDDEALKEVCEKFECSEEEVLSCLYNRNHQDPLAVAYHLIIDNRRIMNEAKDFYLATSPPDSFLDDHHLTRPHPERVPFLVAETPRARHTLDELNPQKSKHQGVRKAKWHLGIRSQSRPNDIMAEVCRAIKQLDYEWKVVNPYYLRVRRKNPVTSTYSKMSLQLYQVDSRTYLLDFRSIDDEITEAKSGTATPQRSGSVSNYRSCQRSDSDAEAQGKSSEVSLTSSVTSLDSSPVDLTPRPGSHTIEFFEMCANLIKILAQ
# MRCKB = target: T5, MRCKB (Homo sapiens, UniProt Q9Y5S2)
# T5 construct: gene CDC42BPB
# MAP3K3 = MAP3K3 (Homo sapiens, UniProt Q99759)
# TSSK1B = TSSK1B (Homo sapiens, UniProt Q9BXA7)
# GSK3B = GSK3B (Homo sapiens, UniProt P49841)
smiles,measurement,setting,value
c1ccc2c(c1)Sc1ccccc1N2CCN1CCOCC1 [J54],remaining binding,S6K1,100%
same,remaining binding,CSNK1G2,93%
same,remaining binding,SRPK3,100%
same,remaining binding,CDK9,100%
same,remaining binding,EGFR,92%
same,remaining binding,DDR2,88%
same,remaining binding,GAK,95%
same,remaining binding,DRAK1,89%
same,remaining binding,PRKG1,86%
same,remaining binding,AURKA,100%
same,remaining binding,ACVR2A,86%
same,remaining binding,LIMK1,100%
same,remaining binding,TNK2,100%
same,remaining binding,PCTK1,99%
same,remaining binding,AMPK-alpha1,100%
same,remaining binding,MRCKB,95%
same,remaining binding,MAP3K3,100%
same,remaining binding,TSSK1B,59%
same,remaining binding,GSK3B,100%
